US6737383B1, “Herbicidal oxadiazolidines” (priority 1999, dated 2004)

How the values were obtained:
winter wheat [1] = test: Test E winter wheat; assay type: in vivo, Triticum aestivum; settings: Postemergence; for Wheat (winter) plant response rating: Rate 250 g/ha
Method in brief: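 Compounds formulated in non-phytotoxic solvent mixture with surfactant; for postemergence, sprayed on plants at 1- to 4-leaf stage grown in 60:40 sandy loam/greenhouse potting mix. Kept in greenhouse ~21 to 28 days, then visually rated against untreated controls.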

wild oat = test: Test E wild oat; assay type: in vivo, Avena fatua; settings: Preemergence; for Wild oat plant response rating (0 to 100 scale): Rate 250 g/ha
Italian ryegrass = test: Test E Italian ryegrass; assay type: in vivo, Lolium multiflorum; settings: Preemergence; for I. Ryegrass plant response rating (0 to 100 scale): Rate 250 g/ha
green foxtail = test: Test E green foxtail; assay type: in vivo, Setaria viridis; settings: Preemergence; for Green foxtail plant response rating (0 to 100 scale): Rate 250 g/ha
blackgrass = test: Test E blackgrass; assay type: in vivo, Alopecurus myosuroides; settings: Preemergence; for Blackgrass plant response rating (0 to 100 scale): Rate 250 g/ha
corn = test: Test B pre/postemergence corn; assay type: in vivo, Zea mays
Method in brief: (§1)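 Test chemicals in a non-phytotoxic solvent mixture with surfactant were sprayed preemergence onto planted seeds and postemergence onto plants 2 to 18 cm tall (1- to 4-leaf stage). After twelve to sixteen days in a greenhouse, injury was visually rated against untreated controls from 0 (no effect) to 10 (complete control).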

soybean = test: Test B pre/postemergence soybean; assay type: in vivo, Glycine max
Method in brief: as §1

rape = test: Test B pre/postemergence rape; assay type: in vivo, Brassica napus
Method in brief: as §1

smallflower flatsedge = test: Test B flood test smallflower flatsedge; assay type: in vivo, Cyperus difformis
Method in brief: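 Read-out is a visual response score from 0 (no effect) to 10 (complete control), assigned by comparison with untreated controls. Treatment was applied at the 2-leaf stage, and plants stayed in the greenhouse for twelve to sixteen days before scoring.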

winter barley = test: Test E winter barley; assay type: in vivo, Hordeum vulgare; settings: Preemergence; for Barley (winter) plant response rating (0 to 100 scale): Rate 250 g/ha
winter wheat [2] = test: Test E winter wheat; assay type: in vivo, Triticum aestivum; settings: Preemergence; for Wheat (winter) plant response rating (0 to 100 scale): Rate 250 g/ha
[3] = 0 to 100 scale where 0 is no effect and 100 is complete control
[4] = Rate 500 g/ha, 0 to 100 scale, 0 is no effect, 100 is complete control
[5] = Rate 125 g/ha, 0 to 100 scale (0 no effect, 100 complete control)
[6] = Rate 500 g/ha, 0 to 100 scale where 0 is no effect and 100 is complete control
[7] = Preemergence, Rate 62 g/ha, scale of 0 to 10 where 0 is no effect and 10 is complete control
[8] = Preemergence, Rate 250 g/ha, scale of 0 to 10 where 0 is no effect and 10 is complete control
[9] = Preemergence, Rate 500 g/ha, scale of 0 to 10 where 0 is no effect and 10 is complete control
[10] = Rate 62 g/ha, Postemergence, scale of 0 to 10 where 0 is no effect and 10 is complete control
[11] = Rate 125 g/ha, Postemergence, scale 0 to 10
[12] = Rate 125 g/ha, Preemergence, scale of 0 to 10 where 0 is no effect and 10 is complete control
[13] = Rate 500 g/ha, Postemergence, scale 0 to 10, 0 no effect, 10 complete control
[14] = Rate 62 g/ha, headed Pre-emergence (flood test species), scale 0 to 10 (0 no effect, 10 complete control)
[15] = Rate 125 g/ha, Pre-emergence, flood test species, scale 0 to 10 where 0 is no effect and 10 is complete control
[16] = Rate 250 g/ha, Pre-emergence, flood-test species, scale 0 to 10, 0 is no effect, 10 is complete control
[17] = Rate 500 g/ha, Pre-emergence, flood test species, scale 0 to 10 (0 no effect, 10 complete control)
[18] = Rate 1000 g/ha, 0 to 100 scale, 0 no effect, 100 complete control

## CC(C)N(C(=O)n1oc(=O)n(CCC2OCCO2)c1=O)c1ccc(F)cc1 [Compound 219]
Winter wheat [1]; Rate 125 g/ha, 0 to 100 scale, 0 is no effect, 100 is complete control
  Plant response rating, Wheat (winter): 20
Winter wheat [1]; [3]
  Wheat (winter) plant response rating: 50
Winter wheat [1]; [4]
  Plant response rating, Wheat (winter): 60
Wild oat; [5]
  Plant response rating, Wild oat: 30
Wild oat
  Wild oat plant response rating (0 to 100 scale): 50
Wild oat; [6]
  Plant response rating, Wild oat: 60
Italian ryegrass; [5]
  Plant response rating, I. Ryegrass: 30
Italian ryegrass
  I. Ryegrass plant response rating (0 to 100 scale): 55
Italian ryegrass; [6]
  Plant response rating, I. Ryegrass: 70
Green foxtail; [5]
  Plant response rating, Green foxtail: 65
Green foxtail
  Green foxtail plant response rating (0 to 100 scale): 60
Green foxtail; [6]
  Plant response rating, Green foxtail: 70
blackgrass; [5]
  Plant response rating, Blackgrass: 0
blackgrass
  Blackgrass plant response rating (0 to 100 scale): 20
blackgrass; [6]
  Plant response rating, Blackgrass: 70
corn; [7]
  Corn plant response rating: 0
corn; [8]
  Corn plant response rating: 5
corn; [9]
  Plant response rating, Corn: 7
corn; [10]
  Corn plant response rating: 0
corn; [11]
  Corn plant response rating: 0
corn; [12]
  Corn plant response rating: 0
corn; Rate 250 g/ha, Postemergence
  Plant response rating (0 to 10; 0 is no effect, 10 is complete control), Corn: 4
corn; [13]
  Corn plant response rating: 5
soybean; [7]
  Soybean plant response rating: 0
soybean; [8]
  Soybean plant response rating: 0
soybean; [9]
  Plant response rating, Soybean: 0
soybean; [10]
  Soybean plant response rating: 5
soybean; [11]
  Soybean plant response rating: 5
soybean; [12]
  Soybean plant response rating: 0
soybean; Rate 250 g/ha, Postemergence
  Plant response rating (0 to 10; 0 is no effect, 10 is complete control), Soybean: 7
soybean; [13]
  Soybean plant response rating: 7
rape; [7]
  Rape plant response rating: 0
rape; [8]
  Rape plant response rating: 6
rape; [9]
  Plant response rating, Rape: 10
rape; [10]
  Rape plant response rating: 2
rape; [11]
  Rape plant response rating: 3
rape; [12]
  Rape plant response rating: 0
rape; Rate 250 g/ha, Postemergence
  Plant response rating (0 to 10; 0 is no effect, 10 is complete control), Rape: 7
rape; [13]
  Rape plant response rating: 7
Smallflower flatsedge; [14]
  S. Flatsedge plant response rating: 0
Smallflower flatsedge; [15]
  S. Flatsedge plant response rating: 0
Smallflower flatsedge; [16]
  S. Flatsedge plant response rating: 0
Smallflower flatsedge; [17]
  S. Flatsedge plant response rating: 4
Winter barley; [5]
  Plant response rating, Barley (winter): 20
Winter barley
  Barley (winter) plant response rating (0 to 100 scale): 30
Winter barley; [6]
  Plant response rating, Barley (winter): 70
Winter wheat [2]; [5]
  Plant response rating, Wheat (winter): 35
Winter wheat [2]
  Wheat (winter) plant response rating (0 to 100 scale): 60
Winter wheat [2]; [6]
  Plant response rating, Wheat (winter): 60

## Cc1nc(C)c(Cn2c(=O)on(C(=O)N(c3ccc(F)cc3F)C(C)C)c2=O)s1 [Compound 233]
Winter wheat [1]; Rate 1000 g/ha, 0 to 100 scale where 0 is no effect and 100 is complete control
  Plant response rating, Wheat (winter): 60
Winter wheat [1]; [3]
  Wheat (winter) plant response rating: 50
Winter wheat [1]; [4]
  Plant response rating, Wheat (winter): 55
Wild oat
  Wild oat plant response rating (0 to 100 scale): 55
Wild oat; [6]
  Plant response rating, Wild oat: 60
Wild oat; [18]
  Plant response rating, Wild oat: 60
Italian ryegrass
  I. Ryegrass plant response rating (0 to 100 scale): 40
Italian ryegrass; [6]
  Plant response rating, I. Ryegrass: 50
Italian ryegrass; [18]
  Plant response rating, I. Ryegrass: 60
Green foxtail
  Green foxtail plant response rating (0 to 100 scale): 100
Green foxtail; [6]
  Plant response rating, Green foxtail: 100
Green foxtail; [18]
  Plant response rating, Green foxtail: 100
blackgrass
  Blackgrass plant response rating (0 to 100 scale): 50
blackgrass; [6]
  Plant response rating, Blackgrass: 60
blackgrass; [18]
  Plant response rating, Blackgrass: 85
corn; [7]
  Corn plant response rating: 0
corn; [8]
  Corn plant response rating: 0
corn; [9]
  Plant response rating, Corn: 0
corn; [10]
  Corn plant response rating: 0
corn; [11]
  Corn plant response rating: 0
corn; [12]
  Corn plant response rating: 0
corn; Rate 250 g/ha, Postemergence
  Plant response rating (0 to 10; 0 is no effect, 10 is complete control), Corn: 0
corn; [13]
  Corn plant response rating: 0
soybean; [7]
  Soybean plant response rating: 0
soybean; [8]
  Soybean plant response rating: 0
soybean; [9]
  Plant response rating, Soybean: 0
soybean; [10]
  Soybean plant response rating: 3
soybean; [11]
  Soybean plant response rating: 3
soybean; [12]
  Soybean plant response rating: 0
soybean; Rate 250 g/ha, Postemergence
  Plant response rating (0 to 10; 0 is no effect, 10 is complete control), Soybean: 3
soybean; [13]
  Soybean plant response rating: 5
rape; [7]
  Rape plant response rating: 0
rape; [8]
  Rape plant response rating: 0
rape; [9]
  Plant response rating, Rape: 3
rape; [10]
  Rape plant response rating: 2
rape; [11]
  Rape plant response rating: 2
rape; [12]
  Rape plant response rating: 0
rape; Rate 250 g/ha, Postemergence
  Plant response rating (0 to 10; 0 is no effect, 10 is complete control), Rape: 2
rape; [13]
  Rape plant response rating: 3
Smallflower flatsedge; [14]
  S. Flatsedge plant response rating: 0
Smallflower flatsedge; [15]
  S. Flatsedge plant response rating: 0
Smallflower flatsedge; [16]
  S. Flatsedge plant response rating: 0
Smallflower flatsedge; [17]
  S. Flatsedge plant response rating: 0
Winter barley
  Barley (winter) plant response rating (0 to 100 scale): 30
Winter barley; [6]
  Plant response rating, Barley (winter): 50
Winter barley; [18]
  Plant response rating, Barley (winter): 60
Winter wheat [2]
  Wheat (winter) plant response rating (0 to 100 scale): 50
Winter wheat [2]; [6]
  Plant response rating, Wheat (winter): 50
Winter wheat [2]; [18]
  Plant response rating, Wheat (winter): 60
